Tests used:
[1] = system: OVCAR cells; experiment: Cell invasion assay; format: cell-based, human; conditions: 2 or 10 μM; control peptide p1 10 μM
Description: (§1) Cell invasion was analyzed using a BD BioCoat (registered trademark) Matrigel Invasion Chamber (Becton, Dickinson and Company). First, a certain amount of cells (about 1×10^5 cells/well) were treated with 2 μM, 8 μM, or 20 μM mouse dicalcin at room temperature for 20 minutes.
(§2) The treated cells were washed by centrifugation treatment, and then plated in the upper chamber of a transwell preliminarily coated with Matrigel, followed by performing culture using DMEM (+10% FBS) as a medium.
(§3) About 16 hours later, the invading cells that had migrated into the lower chamber were fixed using 4% paraformaldehyde/phosphate buffer at room temperature for 10 minutes, and then stained with crystal violet, followed by excision of the membrane, embedding on a slide, and counting of the cell number. The invasion index was calculated as {(number of stained cells)/(number of plated cells)}×100(%), and normalized by the later-mentioned result of Experimental Example 2-2, which was taken as 100(%).
The OVCAR-3 cell line (which may be referred to as “OVCAR cells” or, simply, “cells”), which is a commonly used cell line, was used. OVCAR cells were obtained from RIKEN BioResource Center (Cell No. RCB2135), and cultured in DMEM medium (+10% FBS) according to a conventional method. This line is a human ovarian cancer (adenocarcinoma)-derived cell line.
An analysis was carried out in the same manner as in Experimental Example 2-1 except that OVCAR cells were used as the cells, and that 8 μM or 20 μM human dicalcin was used instead of mouse dicalcin.
An analysis was carried out in the same manner as in Experimental Example 9-1 except that 20 μM BSA was used instead of human dicalcin.
An analysis was carried out in the same manner as in Experimental Example 2-1 except that OVCAR cells were used as the cells, and that 2 μM or 10 μM hDC-p6 was used as a partial peptide. Statistical analysis was carried out by unpaired Student t-test in order to analyze a significant difference.

[2] = system: OVCAR cells; experiment: Cell binding experiment; design: species or system human; conditions: 5 μM rhodamine-labeled; calcium absent; control p1
[3] = system: PC-3 cells; experiment: Cell binding experiment; design: species or system human; conditions: 5 μM rhodamine-labeled; calcium absent; control hDC-p1
Source text: The PC-3 cell line (which may be referred to as “PC-3 cells” or, simply, “cells”), which is a commonly used cell line, was used. PC-3 cells were obtained from RIKEN BioResource Center (Cell No. RCB2145), and cultured in DMEM medium (+10% FBS) according to a conventional method. This line is a human prostate cancer-derived cell line.

[4] = system: PC-3 cells; experiment: Cell invasion assay; format: cell-based, human; conditions: 10 μM; control hDC-p1 10 μM
Description: as §1, §2, §3
An analysis was carried out in the same manner as in Experimental Example 2-1 except that PC-3 cells were used as the cells, and that 10 μM hDC-p6 was used as a partial peptide. Statistical analysis was carried out by unpaired Student t-test in order to analyze a significant difference.

[5] = system: human cancer tissues; experiment: Cell binding experiment on paraffin sections of human cancer tissues
Description: After washing, analysis was carried out using a fluorescence microscope (Olympus Corporation).
An experiment was carried out in the same manner as in Experimental Example 15-1 except that a paraffin section derived from a human prostate cancer tissue (US Biomax Inc.) was used as a target.
An experiment was carried out in the same manner as in Experimental Example 15-1 except that a paraffin section derived from a human colorectal (colon) cancer tissue (US Biomax Inc.) was used as a target. The white dotted line indicates the border between the tumor area and the normal area.
An experiment was carried out in the same manner as in Experimental Example 15-1 except that a paraffin section derived from a human colorectal (rectal) cancer tissue (US Biomax Inc.) was used as a target. The white dotted line indicates the border between the tumor area and the normal area.
An experiment was carried out in the same manner as in Experimental Example 15-1 except that a paraffin section derived from a human breast cancer (breast ductal carcinoma) tissue (US Biomax Inc.) was used as a target.
An experiment was carried out in the same manner as in Experimental Example 15-1 except that a paraffin section derived from a human breast cancer (invasive lobular carcinoma) tissue (US Biomax Inc.) was used as a target. […]

[6] = system: OV2944 cells; experiment: Cell binding experiment (fluorescently labeled protein/peptide, confocal microscope); design: species or system mouse
Description: The OV2944-HM-1 cell line (which may be referred to as “OV2944 cells” or, simply, “cells”), which is a commonly used cell line, was used. OV2944 cells were obtained from RIKEN BioResource Center (Cell No. RCB1483), and cultured in DMEM medium (+10% FBS) according to a conventional method.
Cultured cells were fixed on a glass plate (4% paraformaldehyde/phosphate buffer, room temperature, 10 minutes), and treated with sheep serum. Thereafter, mouse dicalcin (5 μM) fluorescently labeled with tetramethylrhodamine (TMR) was reacted with the cells in the presence of 1 mM CaCl2 (4° C., overnight). After washing with TBS buffer, analysis was carried out using a confocal microscope (Carl Zeiss). Further, cell nuclei were stained with DAPI.
An experiment was carried out in the same manner as in Experimental Example 1-1 except that the reaction was carried out in the presence of 1 mM EGTA (which may be referred to as “in the absence of calcium”).
An experiment was carried out in the same manner as in Experimental Example 1-1 except that immunostaining was carried out using an anti-mouse dicalcin antibody (Catalog No. MAB5167, R&D Systems) as a primary antibody, and an Alexa Fluor (registered trademark) 594-labeled anti-rat IgG antibody (Catalog No. A11007, Invitrogen) as a secondary antibody.
An experiment was carried out in the same manner as in Experimental Example 1-1 except that each of partial peptides p1 to p7 (5 μM) fluorescently labeled with rhodamine was used.

[7] = system: OV2944 cells; experiment: Cell invasion assay (Matrigel Invasion Chamber); format: cell-based, mouse
Description: as §1, §2
About 16 hours later, the invading cells that had migrated into the lower chamber were fixed using 4% paraformaldehyde/phosphate buffer at room temperature for 10 minutes, and then stained with crystal violet, followed by excision of the membrane, embedding on a slide, and counting of the cell number.

[8] = system: OV2944 cells; experiment: Cell migration assay; format: cell-based, mouse; conditions: 5 μM; versus p1 and no peptide
Description: The plasmid vector pDsRed2-C1 (Clontech), which expresses a fluorescent protein (DsRed2), was transfected into cells. […] The observation was carried out for 12 to 37 cells. Statistical analysis was carried out by unpaired Student t-test in order to analyze a significant difference.
An experiment was carried out in the same manner as in Experimental Example 8-1 except that no partial peptide was added.

[9] = system: OV2944 cells expressing the fluorescent protein tdTomato; experiment: Observation of metastasis to liver after intraperitoneal cell transfer; format: in vivo, mouse; conditions: 3 nmoles/two days, Day 21, versus control peptide p1
Description: The plasmid vector ptdTomato-C1 (Clontech), which expresses the fluorescent protein tdTomato, was transfected into OV2944 cells, and, 24 to 48 hours later, the cells were suspended in phosphate buffer. Using a flow cytometer (FACS Aria, BD Biosciences), the OV2944 cells expressing the fluorescent protein tdTomato shown in FIG. 13A to FIG. 13C were purified.
(§4) The purified OV2944 cells expressing the fluorescent protein tdTomato were transferred into the abdominal cavity of mice (B6C3F1 strain, 9 weeks old, female, CLEA Japan, Inc.) (1×10^5 cells/mouse). […] On Day 21, the abdominal organs were removed, and OV2944 cells expressing the fluorescent protein tdTomato in the liver were observed using a fluorescence stereomicroscope OV110 (Olympus Corporation).
FIG. 15-1B focuses on cell colonies. […] The number of colonies was counted, and a significant difference was analyzed by unpaired Student t-test.

[10] = system: OV2944 cells; experiment: Analysis of survival after cell transfer (Kaplan Meier); format: in vivo, mouse
Description: as §4
Intraperitoneal injection was carried out in the same manner as in Experimental Example 13-1 and Experimental Example 13-2, and survival analysis was carried out thereafter to provide Experimental Example 14-1 and Experimental Example 14-2. For the survival curve according to the Kaplan Meier method, a significant difference was analyzed by log-rank test.

[11] = Glycolipid sugar chain array binding experiment; conditions: 5 μM fluorescently labeled, 4° C. overnight
[12] = system: GM1b on the plasma membrane of OV2944 cells; experiment: GM1b inhibition assay in relation to binding of partial peptide p6 to OV2944 cells; design: species or system mouse; conditions: 5 μM TMR-labeled p6
Description: Cultured OV2944 cells were fixed on a glass plate (4% paraformaldehyde/phosphate buffer, room temperature, 10 minutes), and treated with sheep serum. […] After washing, analysis was carried out using a confocal microscope (Carl Zeiss).
An experiment was carried out in the same manner as in Experimental Example 18-1 except that GM1b was absent.
Further, an experiment was carried out in the same manner as in Experimental Example 18-1 and Experimental Example 18-2 for cases where GM1b was used alone at a concentration of 0, 10, or 100 μM, where GT1c was used alone at a concentration of 100 μM, and where GM1b and GT1c were used in combination at a concentration of 100 μM each.

[13] = system: Erk1/2; experiment: Suppression of Erk1/2 signaling (Western blotting, pErk/Erk); format: cell-based, mouse
Source text: The OV2944 cells were extracted and sonicated, and then analyzed for the activity of Erk1/2 by Western blotting. An antibody (Cell Signaling) against Erk1/2 protein in the phosphorylated state (that is, the activated state) (pErk1/2), or an antibody (Santa Cruz) against total Erk1/2 protein including the protein in the phosphorylated state and the protein in the dephosphorylated state (Erk1/2), was used therefor. The ratio between pErk1/2 and Erk1/2 (pErk/Erk) in the Western blot image was calculated, and the data were normalized by taking the value at time 0 as 1.

## hDC-p6: partial peptide of human dicalcin, SEQ ID NO: 7, QLDFSEFLNLI (listed as Homo sapiens)
[1]
  cell invasion (invasion index): suppresses cell invasion in a concentration-dependent manner
[2]
  binding to the cells (fluorescence intensity): binds to the cells
[3]
  binding to the cells (fluorescence intensity): binds to the cells
[4]
  cell invasion (invasion index): suppresses cell invasion
[5]; 5 μM, 4° C. overnight, ovarian, prostate, colon, rectal, breast (4 types), renal, lung, glioma
  binding to cancer cells of tissue sections: binds to cancer cells of any of these tissues
[5]; colon cancer section, blocking and peptide reaction together, 37° C., 1 hour
  determination of tumor area by fluorescence positive reaction: tumor area could be determined

## partial peptide of mouse dicalcin, SEQ ID NO: 17, QLDFQEFLNLI (listed as Mus musculus) [p6]
[6]; 5 μM rhodamine-labeled partial peptides, ranking
  cell-binding ability (fluorescence intensity): highest cell-binding ability
[6]; 5 μM, CD44 as plasma membrane control
  site of binding on cells: binds to the plasma membranes of cells
[7]; 8 μM each, versus 10 μM BSA
  cell invasion, ranking of suppression: suppresses cell invasion at the highest level
[7]; 0.2, 0.8, 2, 8, 20 μM
  cell invasion, concentration dependence: suppressed cell invasion in a concentration-dependent manner
[8]
  cell migration (migration distance): suppresses migration of the cells
[9]
  number of colonies in the liver: significantly smaller
[10]; Experimental Example 14-1 relative to 14-2 (p1)
  increase in average number of days of survival: 21%
[10]; intraperitoneal, 3 nmoles/two days
  average number of days of survival: 38.5 days
[10]; intraperitoneal, 3 nmoles/two days, versus control peptide p1, log-rank test
  survival rate of mice: significantly suppresses a decrease in the survival rate
[11]
  target molecule candidate by binding to glycolipid sugar chains: GM1b ganglioside was suggested
[12]; GM1b in the medium (10, 100 μM)
  binding to OV2944 cell / plasma membrane in presence of GM1b: remarkably decreased
[12]; GT1c 100 μM
  binding ability to OV2944 cells in presence of GT1c: did not change
[13]; 5 μM p6 alone (absence of GM1b), 0-30 minutes
  Erk1/2 activity (pErk/Erk): suppresses the Erk1/2 activity
[13]; p6 and GM1b present
  Erk1/2 activity (pErk/Erk) with GM1b present: disappearance of the Erk-suppressing action

Source: US11696938B2, “Human cancer cell metastasis inhibitory agent and human cancer cell determination agent” (priority 2017, dated 2023)
